In PMC10379611 (International Journal of Molecular Sciences, 2023):
Entries after “also recorded” stand apart in the source; their conditions may differ. Where two headings read alike, the source gives them in different places.

Experiments:
OATP2B1 = biological target: T1, OATP2B1 (Homo sapiens, UniProt O94956); assay: OATP2B1 uptake assay (pyranine) in overexpressing A431 cells; type: cell-based; conditions: for IC50: pyranine substrate, A431 cells, pH 5.5, read-out: estimated IC50, OATP2B1
T1 construct: expressed in transfected cells; host or cells: A431
T1 sequence (O94956 1-709): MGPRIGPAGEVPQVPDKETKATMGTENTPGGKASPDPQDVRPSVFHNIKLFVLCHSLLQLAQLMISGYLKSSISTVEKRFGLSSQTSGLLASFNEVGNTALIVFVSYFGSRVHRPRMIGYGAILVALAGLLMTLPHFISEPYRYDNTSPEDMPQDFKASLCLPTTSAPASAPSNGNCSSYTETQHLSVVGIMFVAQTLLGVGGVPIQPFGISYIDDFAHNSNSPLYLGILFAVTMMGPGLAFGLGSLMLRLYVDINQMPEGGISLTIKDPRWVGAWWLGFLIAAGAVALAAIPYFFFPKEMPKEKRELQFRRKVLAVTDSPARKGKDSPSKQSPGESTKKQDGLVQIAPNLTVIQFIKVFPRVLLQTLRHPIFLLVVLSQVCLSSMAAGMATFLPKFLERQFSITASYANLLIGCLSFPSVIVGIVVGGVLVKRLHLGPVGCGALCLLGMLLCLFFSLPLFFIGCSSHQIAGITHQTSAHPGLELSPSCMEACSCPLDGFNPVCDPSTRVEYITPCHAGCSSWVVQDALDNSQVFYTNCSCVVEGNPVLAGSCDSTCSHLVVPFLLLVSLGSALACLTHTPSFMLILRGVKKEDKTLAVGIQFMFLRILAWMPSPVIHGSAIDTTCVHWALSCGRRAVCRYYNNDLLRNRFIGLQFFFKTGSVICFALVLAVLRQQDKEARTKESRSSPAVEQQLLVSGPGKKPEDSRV
Method: To study the function of OATPs, we used A431 cells overexpressing OATP1A2, OATP1B1, OATP1B3, or OATP2B1 and mock-transfected A431 cells, generated as previously described, as controls. […] Briefly, OATP-overexpressing A431 cells and mock-transfected A431 cells were seeded on 96-well plates (8 × 10^4 cells/well).

OATP1A2 = biological target: T2, OATP1A2 (Homo sapiens, UniProt P46721); assay: OATP1A2 uptake assay (SR101) in overexpressing A431 cells
T2 sequence (P46721 1-670): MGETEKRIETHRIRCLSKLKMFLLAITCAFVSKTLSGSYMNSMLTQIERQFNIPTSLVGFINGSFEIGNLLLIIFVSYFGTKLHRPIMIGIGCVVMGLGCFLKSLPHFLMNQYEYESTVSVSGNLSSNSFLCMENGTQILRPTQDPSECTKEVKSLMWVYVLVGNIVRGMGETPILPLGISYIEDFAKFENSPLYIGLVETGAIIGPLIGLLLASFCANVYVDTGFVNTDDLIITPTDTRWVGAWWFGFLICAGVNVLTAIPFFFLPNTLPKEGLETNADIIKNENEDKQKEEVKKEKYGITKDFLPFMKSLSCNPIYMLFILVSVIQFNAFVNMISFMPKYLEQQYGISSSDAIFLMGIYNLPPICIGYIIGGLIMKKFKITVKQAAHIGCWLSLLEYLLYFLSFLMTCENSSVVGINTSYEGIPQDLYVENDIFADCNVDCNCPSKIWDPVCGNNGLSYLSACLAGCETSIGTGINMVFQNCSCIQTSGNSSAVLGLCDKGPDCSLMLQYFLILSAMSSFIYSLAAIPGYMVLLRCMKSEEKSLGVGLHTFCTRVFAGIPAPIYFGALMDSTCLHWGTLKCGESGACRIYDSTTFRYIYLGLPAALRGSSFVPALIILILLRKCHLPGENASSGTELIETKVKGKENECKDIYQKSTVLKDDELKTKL
Method: To study the function of OATPs, we used A431 cells overexpressing OATP1A2, OATP1B1, OATP1B3, or OATP2B1 and mock-transfected A431 cells, generated as previously described, as controls. The interactions between OATPs and the test compounds were studied in a microplate-based indirect assay by employing fluorescent dye substrates: pyranine for OATP1B1, OATP1B3, OATP2B1 and sulforhodamine 101 for OATP1A2 [44, 45]. Briefly, OATP-overexpressing A431 cells and mock-transfected A431 cells were seeded on 96-well plates (8 × 10^4 cells/well). The next day, the cells were washed three times with phosphate buffered saline (PBS, pH 7.4) and preincubated with 50 μL uptake buffer (125 mM NaCl, 4.8 mM KCl, 1.2 mM CaCl2, 1.2 mM KH2PO4, 12 mM MgSO4, 25 mM MES (2-(Nmorpholino) ethanesulfonic acid, and 5.6 mM glucose, pH 5.5 for OATP2B1 and pH 7.4 for OATP1A2, OATP1B1, or OATP1B3) at 37 °C for 5 min in the presence or absence of the tested compounds. The reaction was started by the addition of a final concentration of 20 μM pyranine (OATP1B1, OATP1B3, OATP2B1) or 0.5 μM sulforhodamine 101 (OATP1A2). After incubation at 37 °C for 10 min, the reactions were stopped and the cells were washed three times with ice-cold PBS. Fluorescence was measured using an Enspire plate reader (Perkin Elmer, Waltham, MA, USA) (Ex/Em: 460/510 nm (pyranine) or 586/605 nm (sulforhodamine 101), and OATP-dependent transport activity was determined by subtracting the fluorescence measured in mock-transfected cells.

ABCB1 = ABCB1 (Homo sapiens, UniProt P08183); assay: ABCB1 vesicular transport (NMQ), HEK293 inverted membrane vesicles; conditions: for effect on ABCB1 NMQ vesicular transport: up to 200 μM
Chain of ABCB1 (P08183 whole entry): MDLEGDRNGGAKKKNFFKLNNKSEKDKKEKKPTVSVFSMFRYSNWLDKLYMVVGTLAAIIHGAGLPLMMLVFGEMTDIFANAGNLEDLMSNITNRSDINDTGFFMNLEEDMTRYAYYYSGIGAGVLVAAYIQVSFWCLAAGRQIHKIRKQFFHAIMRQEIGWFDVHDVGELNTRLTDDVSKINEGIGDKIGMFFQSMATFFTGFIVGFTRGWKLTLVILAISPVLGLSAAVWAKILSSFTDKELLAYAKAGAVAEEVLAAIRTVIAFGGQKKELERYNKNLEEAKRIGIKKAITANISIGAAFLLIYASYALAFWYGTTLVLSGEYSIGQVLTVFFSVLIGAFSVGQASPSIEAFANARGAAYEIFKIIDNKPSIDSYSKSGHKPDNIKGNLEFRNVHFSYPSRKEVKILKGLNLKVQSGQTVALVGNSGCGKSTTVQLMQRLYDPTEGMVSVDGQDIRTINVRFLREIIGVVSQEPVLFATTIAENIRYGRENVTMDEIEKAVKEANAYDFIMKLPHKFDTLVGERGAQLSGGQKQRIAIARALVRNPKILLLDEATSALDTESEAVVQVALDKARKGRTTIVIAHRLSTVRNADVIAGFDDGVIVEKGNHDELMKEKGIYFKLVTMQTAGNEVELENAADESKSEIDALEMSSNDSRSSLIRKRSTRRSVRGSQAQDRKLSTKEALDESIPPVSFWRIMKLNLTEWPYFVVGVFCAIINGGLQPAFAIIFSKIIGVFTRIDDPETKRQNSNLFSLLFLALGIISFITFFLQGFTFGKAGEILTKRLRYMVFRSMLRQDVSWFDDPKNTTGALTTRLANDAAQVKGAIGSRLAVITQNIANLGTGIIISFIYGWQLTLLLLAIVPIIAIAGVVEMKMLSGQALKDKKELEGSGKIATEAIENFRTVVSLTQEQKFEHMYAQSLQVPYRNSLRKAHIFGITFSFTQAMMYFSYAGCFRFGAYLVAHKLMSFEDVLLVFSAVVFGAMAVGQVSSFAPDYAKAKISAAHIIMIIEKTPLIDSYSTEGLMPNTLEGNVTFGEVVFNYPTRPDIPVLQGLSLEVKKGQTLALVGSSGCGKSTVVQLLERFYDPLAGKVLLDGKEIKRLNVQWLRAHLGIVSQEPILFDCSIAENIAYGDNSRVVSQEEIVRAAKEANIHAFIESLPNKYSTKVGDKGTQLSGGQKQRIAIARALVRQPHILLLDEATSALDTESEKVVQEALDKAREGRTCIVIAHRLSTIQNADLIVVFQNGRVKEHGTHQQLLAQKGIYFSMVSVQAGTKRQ

O=c1nc(NO)ccn1[C@@H]1O[C@H](CO)[C@@H](O)[C@H]1O [EIDD-1931]
maximum inhibition of OATP2B1 (OATP2B1; at 200 μM, pyranine): 20–40% | IC50 (OATP2B1): > 200 µM | maximum inhibition of OATP1A2 (OATP1A2; at 200 μM, SR101): 20–40% | IC50 (OATP1A2; read-out: estimated IC50, OATP1A2, SR101 substrate, A431 cells): > 200 µM | effect on ABCB1 NMQ vesicular transport (ABCB1): neither the function of ABCB1 nor that of ABCG2 was altered

CC(C)C(=O)OC[C@H]1O[C@@H](n2ccc(NO)nc2=O)[C@H](O)[C@@H]1O [EIDD-2801, Molnupiravir]
inhibition at 10 min, 200 µM (OATP2B1; human, A431 cells overexpressing OATP2B1, pH 5.5, probe pyranine (20 μM), at 200 μM, pyranine, read-out: maximum inhibition of OATP2B1): 20 to 40% | IC50 (OATP2B1): > 200 µM | IC50 (OATP1A2): > 200 µM | inhibition at 10 min, 200 µM (OATP1A2; human, A431 cells overexpressing OATP1A2, pH 7.4, probe sulforhodamine 101 (0.5 μM)): 20 to 40% | effect on ABCB1 NMQ vesicular transport (ABCB1): neither the function of ABCB1 nor that of ABCG2 was altered

CC(C)(C)[C@H](NC(=O)C(F)(F)F)C(=O)N1C[C@H]2[C@@H]([C@H]1C(=O)N[C@H](C#N)C[C@@H]1CCNC1=O)C2(C)C [Nirmatrelvir]
inhibition of OATP2B1 by Nirmatrelvir alone (OATP2B1; at 20 μM): only a minor inhibitory effect | inhibition of OATP1A2 by Nirmatrelvir alone (OATP1A2; at 20 μM): only a minor inhibitory effect | IC50 at 10 min (OATP1A2; human, pH 7.4): 79.5 µM | additional effect of Nirmatrelvir on ABCB1 inhibition by Ritonavir (ABCB1; NIR in combination with RIT): no additional effect | effect on ABCB1 NMQ vesicular transport (ABCB1): moderate inhibitory effect; also recorded: only a weak inhibitory effect
